Experimental data taken from PubChem BioAssay (NCI).
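96-well plates; 48 h exposure; 5 concentrations. Endpoints by linear interpolation between flanking doses. Not reached: highest tested concentration assigned. Definition used: TGI = concentration required for complete inhibition of growth.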

Key:
Assay in all cases: NCI-60 cell line screen, 48 h
[1] = tested on: TK-10 renal
[2] = tested on: SN12C renal
[3] = tested on: LOX IMVI melanoma
[4] = tested on: NCI-H522 lung
[5] = tested on: T-47D breast
[6] = tested on: NCI/ADR-RES ovarian
[7] = tested on: 786-0 renal
[8] = tested on: EKVX NSCLC
[9] = tested on: CAKI-1 renal
[10] = tested on: OVCAR-8 ovarian
[11] = tested on: BT-549 breast
[12] = tested on: SF-295 CNS
[13] = tested on: RXF 393 renal
[14] = tested on: OVCAR-5 ovarian
[15] = tested on: SF-539 CNS
[16] = tested on: CCRF-CEM leukemia
[17] = tested on: PC-3 prostate
[18] = tested on: M14 melanoma
[19] = tested on: OVCAR-4 ovarian
[20] = tested on: ACHN renal
[21] = tested on: SK-OV-3 ovarian
[22] = tested on: A498 renal
[23] = tested on: SK-MEL-2 melanoma
[24] = tested on: SW-620 colon
[25] = tested on: UACC-257 melanoma
[26] = tested on: U251 CNS
[27] = tested on: HCT-15 colon
[28] = tested on: NCI-H226 lung
[29] = tested on: SF-268 CNS
[30] = tested on: HL-60(TB) leukemia
[31] = tested on: OVCAR-3 ovarian
[32] = tested on: KM12 colon
[33] = tested on: MDA-MB-231 breast
[34] = tested on: NCI-H460 lung
[35] = tested on: UACC-62 melanoma
[36] = tested on: HOP-92 NSCLC
[37] = tested on: MALME-3M melanoma
[38] = tested on: SR leukemia
[39] = tested on: HCT-116 colon
[40] = tested on: SNB-75 CNS
[41] = tested on: MCF7 breast
[42] = tested on: A549 NSCLC
[43] = tested on: HS 578T breast
[44] = tested on: MDA-MB-435
[45] = tested on: SNB-19 CNS
[46] = tested on: HT29 colon
[47] = tested on: COLO 205 colon
[48] = tested on: SK-MEL-28 melanoma
[49] = tested on: NCI-H23 lung
[50] = tested on: UO-31 renal
[51] = tested on: DU-145 prostate
[52] = tested on: SK-MEL-5 melanoma
[53] = tested on: IGROV1 ovarian
[54] = tested on: MDA-N

Which results are given for `COP(=O)(OC)[C@@](O)(c1ccccc1)[C@@H](O)[C@@H](O)c1ccccc1`?
TGI [1]: > 100 µM; TGI [2]: > 100 µM; TGI [3]: 37.9 µM; TGI [4]: > 100 µM; TGI [5]: > 100 µM; TGI [6]: > 100 µM; TGI [7]: > 100 µM; TGI [8]: > 100 µM; TGI [9]: > 100 µM; TGI [10]: > 100 µM; TGI [11]: > 100 µM; TGI [12]: > 100 µM; TGI [13]: > 100 µM; TGI [14]: > 100 µM; TGI [15]: > 100 µM; TGI [16]: 50.9 µM; TGI [17]: > 100 µM; TGI [18]: > 100 µM; TGI [19]: > 100 µM; TGI [20]: > 100 µM; TGI [21]: > 100 µM; TGI [22]: > 100 µM; TGI [23]: > 100 µM; TGI [24]: > 100 µM; TGI [25]: > 100 µM; TGI [26]: > 100 µM; TGI [27]: > 100 µM; TGI [28]: > 100 µM; TGI [29]: > 100 µM; TGI [30]: > 100 µM; TGI [31]: > 100 µM; TGI [32]: > 100 µM; TGI [33]: > 100 µM; TGI [34]: > 100 µM; TGI [35]: > 100 µM; TGI [36]: > 100 µM; TGI [37]: > 100 µM; TGI [38]: 1.91 µM; TGI [39]: > 100 µM; TGI [40]: > 100 µM; TGI [41]: 83.8 µM; TGI [42]: > 100 µM; TGI [43]: > 100 µM; TGI [44]: > 100 µM; TGI [45]: > 100 µM; TGI [46]: > 100 µM; TGI [47]: > 100 µM; TGI [48]: > 100 µM; TGI [49]: > 100 µM; TGI [50]: > 100 µM; TGI [51]: > 100 µM; TGI [52]: > 100 µM; TGI [53]: > 100 µM; TGI [54]: > 100 µM
